# Legend:
# Format in all cases: cell-based, human
# [1] = system: LXR target genes; assay: Gene expression of LXR target genes in myotubes by Real-Time RT-PCR; settings: after 22-S-HC treatment; data not shown
# [2] = system: MyoD and myogenin; assay: Expression of MyoD and myogenin and differentiation of myoblasts into myotubes
# Description: FIG. 1. Expression of MyoD (A) and myogenin (B) during differentiation of myoblasts. During the differentiation process, cells were harvested on day-2 until day 8. Some cell cultures were treated with ±1 μM T0901317 from day 2 until day 6. Equal amount of total RNA from each donor (n=4) were pooled, reversely transcribed and analyzed by Real-Time RT-PCR. Expression of MyoD and myogenin was normalized to GAPDH. RNA isolation and analysis of gene expression by RT-PCR. Myotubes were washed, trypsinized and pelleted before total RNA was isolated by RNeasy Mini kit (Qiagen Sciences, Oslo, Norway) or Agilent Total RNA Mini kit (Matrix, Oslo, Norway) according to the suppliers total RNA isolation protocol. […] DNA expression was determined by SYBR® Green (Applied Biosystems), and primers [36B4 (Acc#M17885), ACSL1 (Acc#NM-001995), ABCA1 (Acc#AF165281), CD36 (Acc#L06850), FAS (Acc#U26644), GAPDH (Acc#J104038/M33197, GLUT4 (Acc#M20747), LXRα (Acc#U22662), LXR (Acc#U07132), Myogenin (Acc#X17651), MyoD (Acc#BC064493), PPARα (Acc#L02932), PPARδ (Acc#BC002715), PPARγ (Acc#L40904), SCD-1 (Acc#AB032261), SREBP1c (Acc#U00968)], GLUT1, (Acc#03195), GLUT3 ([…]) were designed using Primer Express® (Applied Biosystems). Each target gene was quantified in triplicates and carried out in a 25 μl reaction volume according to the suppliers protocol. […]
# [3] = system: Myotubes from type II diabetic subjects; assay: T0901317 response in myotubes from type II diabetic vs healthy subjects; settings: 1 μM; type II diabetic myotubes compared to myotubes from healthy donors
# Description: FIG. 9. […] T0901317 (1 μM) response of (A) palmitate uptake, distribution into cellular lipids and oxidation and (B) glucose uptake (GT), oxidation (GOX) and glycogen synthesis (GS) in myotubes from healthy donors and donors with type 2 diabetes #p≦0.05 vs control myotubes.
SMILES,FAS mRNA expression observed on a micro fluid card [1],expression levels of MyoD and myogenin ([2]; 1 μM from day 2 until day 6),"differentiation of myoblasts into multinucleated myotubes by light microscopy ([2]; with and without LXR agonist treatment, data not shown)",glucose uptake in response to T0901317 [3],palmitate oxidation to CO2 in response to T0901317 [3],uptake and incorporation of palmitate into complex lipids in response to T0901317 [3]
"CC(C)CC[C@H](O)[C@@H](C)[C@H]1CC[C@H]2[C@@H]3CC=C4C[C@@H](O)CC[C@]4(C)[C@H]3CC[C@]12C [Example 22-S-HC, 22-S-hydroxycholesterol]",significantly reduced,–,–,–,–,–
O=S(=O)(c1ccccc1)N(CC(F)(F)F)c1ccc(C(O)(C(F)(F)F)C(F)(F)F)cc1 [Example T0901317],–,did not seem to interfere,normal differentiation,reduced,absence,elevated

# From patent US20100137266A1, “TREATMENT OF INSULIN RESISTANCE AND DISORDERS ASSOCIATED THEREWITH” (UNIVERSITETET I OSLO, priority 2006, published 2010)
